According to patent US20240164369A1, “MESENCHYMAL STEM CELLS FOR USE IN INCREASING EX-VIVO ORGAN LIFE” (Amniotics AB, priority 2021, published 2024):

Experiments:
[1] = tested on: granulocytes and macrophages among human PBMCs activated with aCD3/aCD28; test: PBMC:MSC co-culture, macrophage activation status after 24 hours (FACS); assay type: cell-based; settings: Prednisolone 125 nM
Procedure: (§1) Following activation, cells were analysed for effects on cellular composition after 24 hours and for effects on cellular composition and cell proliferation using CFSE after 72 hours. In addition, supernatants collected after 24 hours of activation were analysed for cytokine levels using Luminex.
(§2) Peripheral Blood Mononuclear Cells (PBMCs) were isolated from leucocyte concentrate from three different donors (acquired from Blodcentralen, Lunds Universitetssjukhus, Lund, Sweden) through gradient centrifugation at 400×g for 40 minutes using Ficoll. Red blood cells (RBCs) were lysed using BD Pharmlyse buffer 10× diluted in milliQ water for 3 minutes at room temperature (RT). Cells were washed and the isolated PBMCs were pooled. Cell concentration was determined using a Scepter cell counter (Millipore Merck, MA. USA). Cells were diluted to 1×10^7 cells/ml in PBS. Pooled PBMCs were split into 2 different tubes. Cells in tube 1 was stained with CFSE at 5 μM for 5 minutes (dark, RT). CFSEstained cells were washed with an equal volume of FBS to stop the reaction and washed again with PBS. Cells in tube two was left in PBS. […]
(§3) Following 24 hours of incubation, cells in FACS/Luminex plates were stained with antibodies detecting CD73, CD4, CD8, CD80, CD206, CD163 and PD-1 in staining buffer (PBS supplemented with 1% BSA). […] 150 μl was analysed from each sample.

[2] = tested on: granulocytes and macrophages among human PBMCs activated with aCD3/aCD28; test: PBMC:MSC co-culture, macrophage composition and CFSE proliferation after 72 hours; assay type: cell-based
Procedure: as §1
(§4) Peripheral Blood Mononuclear Cells (PBMCs) were isolated from leucocyte concentrate from three different donors (acquired from Blodcentralen, Lunds Universitetssjukhus, Lund, Sweden) through gradient centrifugation at 400×g for 40 minutes using Ficoll. Red blood cells (RBCs) were lysed using BD Pharmlyse buffer 10× diluted in milliQ water for 3 minutes at room temperature (RT). Cells were washed and the isolated PBMCs were pooled. Cell concentration was determined using a Scepter cell counter (Millipore Merck, MA. USA). Cells were diluted to 1×10^7 cells/ml in PBS. Pooled PBMCs were split into 2 different tubes. Cells in tube 1 was stained with CFSE at 5 μM for 5 minutes (dark, RT). CFSEstained cells were washed with an equal volume of FBS to stop the reaction and washed again with PBS. Cells in tube two was left in PBS.
When plating controls, cells were spun down and diluted in M3 or M4 at 4*10^6 cells/ml, with a total amount of cells at 4*10^5 cells/well. 100 μl PBMCs were added per well. […] Medium was added to unstimulated control wells (700 μl/well). Cells were incubated for 24 or 72 hours at 37° ° C., 5% CO2. See also FIG. 23.
After 72 hours of incubation, CFSE stained cells were stained with CD4, CD8, CD80, CD206 and CD163 in staining buffer. Briefly, cells were transferred to V bottom plates, centrifuged at 360×g for 2 min. Cells were washed in PBS, centrifuged at 360×g for 2 min at 4° C. Supernatant was flicked off and surface markers were added. Cells were incubated at +4° C. for 20 minutes. After incubation, cells were washed 1× in PBS, centrifuged at 360×g for 2 min at 4° ° C. Cells were resuspended in PBS and acquired using the Attune Nxt flow cytometer. Compensation was performed using beads • AbC Total Compensation capture beads and negative beads for surface markers. For CFSE compensation, newly CFSE stained cells were used. Since compensation was done using both beads and cells, FSC and SSC were changed and adjusted to beads or cells. Lasers were not changed after compensation. 2.3.4 Cytokine Analysis after 24 Hours of Activation (Luminex)
Graphs were performed using Prism 8 for Mac OS X (GraphPad Software, San Diego, CA, USA). Results are presented as mean values±SEM, if not otherwise stated. Dot plots were acquired from analysis using FlowJo v10.6.1 for Mac (BD, New Jersey, USA).

[3] = tested on: T cells among human PBMCs activated with aCD3/aCD28; test: PBMC:MSC co-culture, T cell activation status after 24 hours (FACS)
Procedure: as §1, §2, §3

[4] = tested on: T cells among human PBMCs activated with aCD3/aCD28; test: PBMC:MSC co-culture, T cell composition and CFSE proliferation after 72 hours
Procedure: as §1, §4
When plating controls, cells were spun down and diluted in M3 or M4 at 4*10^6 cells/ml, with a total amount of cells at 4*10^5 cells/well. 100 μl PBMCs were added per well. […] Medium was added to unstimulated control wells (700 μl/well). […]

[5] = tested on: human PBMCs activated with aCD3/aCD28; test: cytokine analysis in co-culture supernatant after 24 hours (Luminex); assay type: cell-based; settings: media 3
Procedure: 100 μl PBMCs were added per well. […] See also FIG. 23. Supernatant (24 hours incubation) was analysed for cytokines using the 12-[…]-12 Luminex kit. All reagents, standard and samples were prepared at room temperature and according to manufacturer's instruction. Briefly, 50 μl of standard or sample was added to wells. Microparticles were added to samples and standard and samples were incubated for 2 hours at room temperature on a horizontal orbital shaker (800 rpm). Plate was washed 3× in washing buffer using a magnetic plate. Biotin-antibody was added and incubated dark for 1 hour at room temperature on a horizontal orbital shaker (800 rpm). Plate was washed 3× in washing buffer using a magnetic plate. Streptavidin-PE was added to each well and incubated dark at room temperature on a horizontal orbital shaker (800 rpm) for 30 minutes. Plate was washed 3× in washing buffer using a magnetic plate. Microparticles were resuspended in 100 μl washing buffer, incubated for 2 minutes on a horizontal orbital shaker (800 rpm). Samples were analysed on a Bio-Rad Luminex analyzer.

C[C@]12C=CC(=O)C=C1CC[C@@H]1[C@@H]2[C@@H](O)C[C@@]2(C)[C@H]1CC[C@]2(O)C(=O)CO [Prednisolone]
macrophage cell composition [1]: did not have an effect
M1 expression levels [2]: no effect
M1 proliferation (CFSE) [2]: No effect
M2 expression levels [2]: no effect
M2 proliferation (CFSE) [2]: No effect
composition of T helper cells (% CD4+ lymphocytes or MFI of CD4+ lymphocytes) ([3]; 24 hours of incubation, vs control): higher levels
inhibition of T cell activation ([3]; 24 hours, CsA 10 μg/ml, Prednisolone 125 nM): only slightly inhibits
effect on cytotoxic T cells (%) [4]: no effect
effect on T helper cells (%) ([4]; 72 hours of incubation): no effect
HGF level in supernatant [5]: inhibits
IL-6 level in supernatant [5]: inhibits
IL-12/IL-23 p40 level in supernatant [5]: inhibits
TNF-a level in supernatant [5]: inhibits
the other analysed cytokines, levels in supernatant [5]: No inhibitory effect
